2 compounds from publication PMC5835169 (Clinical microbiology and infection : the official …, 2017) can be followed below.

Converted amounts (≈) assume the structure as drawn. Where no end group is shown, it is not given here.

One series concerns mouse lungs. Put plainly: Pulmonary toxicity in uninfected mice. It is filed as in vivo, C57BL/6J mice. The conditions noted are these: for pulmonary toxicity: 0.35 mg/kg i.t., total inflammatory cells, differential cell counts, inflammation-associated genes; for effect on cell differential and inflammatory mediators in the lungs: uninfected mice, 7µg i.t. (7 times the minimum effective dose), 24h.

A further series relates to P. aeruginosa TRPA321. Format: cell-based. The conditions noted are these: MDR strain TRPA321 isolated from cystic fibrosis patients.
The subject of the next series is P. aeruginosa P001. Format: cell-based. The conditions noted are these: MDR strain P001 isolated from cystic fibrosis patients.
The subject of another series is P. aeruginosa P005. It is filed as cell-based. The conditions noted are these: MDR strain P005 isolated from cystic fibrosis patients.
The next series relates to P. aeruginosa P004. Format: cell-based. The conditions noted are these: MDR strain P004 isolated from cystic fibrosis patients.
The subject of the next series is P. aeruginosa TRPA111. It is filed as cell-based. The conditions noted are these: MDR strain TRPA111 isolated from cystic fibrosis patients.
The subject of the next series is P. aeruginosa P003. It is filed as cell-based. The conditions noted are these: MDR strain P003 isolated from cystic fibrosis patients.
For series [1], the system named is differentiated primary HBE cells. Nature of the series: Transepithelial Electrical Resistance. It is filed as cell-based, human. The conditions noted are these: apical, 24 hours after administration.
In another series the test system is P. aeruginosa TRPA108. It is filed as cell-based. The conditions noted are these: MDR strain TRPA108 isolated from cystic fibrosis patients.
The next series relates to P. aeruginosa P002. It is filed as cell-based. The conditions noted are these: MDR strain P002 isolated from cystic fibrosis patients.
A further series relates to HBE cells. Nature of the series: Toxicity to HBE cells. Format: cell-based, human. The conditions noted are these: 16µM.
The test system of a further series is P. aeruginosa PAO1. It is filed as cell-based. The conditions noted are these: control strain PAO1 susceptible to antibiotics and AMPs.

Turning to `CC[C@H](C)[C@H](NC(=O)[C@H](CCCCN)NC(=O)[C@H](CCC(=O)O)NC(=O)[C@H](CCCCN)NC(=O)[C@H](CO)NC(=O)[C@H](CCCCN)NC(=O)[C@H](CCCNC(=N)N)NC(=O)[C@H](Cc1ccccc1)NC(=O)[C@H](Cc1ccccc1)NC(=O)[C@H](CC(=O)O)NC(=O)CNC(=O)[C@H](CC(C)C)NC(=O)[C@@H](N)CC(C)C)C(=O)NCC(=O)N[C@@H](CCCCN)C(=O)N[C@@H](CCC(=O)O)C(=O)N[C@@H](Cc1ccccc1)C(=O)N[C@@H](CCCCN)C(=O)N[C@@H](CCCNC(=N)N)C(=O)N[C@H](C(=O)N[C@H](C(=O)N[C@@H](CCC(N)=O)C(=O)N[C@@H](CCCNC(=N)N)C(=O)N[C@H](C(=O)N[C@@H](CCCCN)C(=O)N[C@@H](CC(=O)O)C(=O)N[C@@H](Cc1ccccc1)C(=O)N[C@@H](CC(C)C)C(=O)N[C@@H](CCCNC(=N)N)C(=O)N[C@@H](CC(N)=O)C(=O)N[C@@H](CC(C)C)C(=O)N[C@H](C(=O)N1CCC[C@H]1C(=O)N[C@@H](CCCNC(=N)N)C(=O)N[C@H](C(=O)N[C@@H](CCC(=O)O)C(=O)N[C@@H](CO)C(=O)O)[C@@H](C)O)C(C)C)[C@@H](C)CC)C(C)C)[C@@H](C)CC` [LL37, reference compound], the pulmonary toxicity result in the series with mouse lungs was “does not cause pulmonary toxicity”. In addition, in the series with mouse lungs, the “effect on cell differential and inflammatory mediators in the lungs” value is reported as “no effect”. Also, the minimum inhibitory concentration (MIC) in the series with P. aeruginosa TRPA321 was found to be 32 µM (≈ 144 µg/mL); against P. aeruginosa P001, 32 µM (≈ 144 µg/mL); against P. aeruginosa P005, 8 µM (≈ 35.9 µg/mL); against P. aeruginosa P004, 8 µM (≈ 35.9 µg/mL); against P. aeruginosa TRPA111, 2 µM (≈ 8.99 µg/mL); in the series on P. aeruginosa P003, 32 µM (≈ 144 µg/mL). The MIC in the series on P. aeruginosa TRPA108 was 2 µM (≈ 8.99 µg/mL); with P. aeruginosa P002, 32 µM (≈ 144 µg/mL). Also, the “final reduction in TEER / recovery” value in series [1] (32µM peptide in PBS) is 1/2; in [1] (64µM peptide in PBS), 2/3.

With RRWVRRVRRVWRRVVRVVRRWVRR [WLBU2], the pulmonary toxicity result in the series with mouse lungs is on record as “does not cause pulmonary toxicity”. For the same compound, the “effect on cell differential and inflammatory mediators in the lungs” value in the series on mouse lungs was “no effect”. For the same compound, the MIC was found to be 2 µM with P. aeruginosa TRPA321; 6 µM in the series with P. aeruginosa P001; 2 µM in the series with P. aeruginosa P005; 2 µM in the series on P. aeruginosa P004; 1 µM in the series on P. aeruginosa TRPA111; 6 µM with P. aeruginosa P003. The MIC in the series on P. aeruginosa PAO1 amounted to 2 µM; against P. aeruginosa TRPA108, 1 µM; with P. aeruginosa P002 it was 4 µM. For the same compound, the “toxicity to HBE cells” value in the series on HBE cells is on record as “not toxic”. The “final reduction in TEER / recovery” value in [1] (32µM peptide in PBS) and in [1] (64µM peptide in PBS) was “completely recovered” each time.
